Assay results as given in EP0922101B1, “EGF-LIKE FACTOR FROM CHROMAFFIN GRANULES AND GLIA CELL-DERIVED NEUROTROPHIC FACTOR WITH SURVIVAL-PROMOTING ACTIVITY ON DAERGIC NEURONS” (BIOPHARM Gesellschaft zur biotechnologischen Entwicklung …, priority 1996, dated 1998).
“Also recorded” adds a separate entry of the source.

Columns and labels:
[1] = tested on: mesencephalic DAergic neurons; experiment: Survival of TH-positive DAergic neurons in dissociated E14 ventral mesencephalic cell cultures (TH immunocytochemistry, cell counts); type: cell-based, rat; conditions: for effect on survival promoting effect of chromaffin granule protein: 30 µM in combination with chromaffin granule protein 1:50, DIV1-DIV8; for basal survival of TH-immunoreactive neurons: 30 µM, control cultures, DIV8; for survival promoting activity: concentrations up to 100 ng/ml, treated for 7 days
Protocol: (§1) Tissue culture. Mesencephalic cell cultures were essentially established as described by Krieglstein and Unsicker (1994). In brief, the ventral midbrain floor was dissected from embryonic day (E) 14 Wistar rat fetuses of two litters (20-25 embryos) and collected in CMF. Tissue pieces were enzymatically dissociated using 0.25% trypsin (BioWhittaker) in CMF for 15 min at 37°C. After addition of an equal volume of ice-cold horse serum and 1mg DNAse, Cells were triturated with fire-polished and siliconized pasteur pipettes and subsequently washed with DMEM/F12. The single cell suspension (100µl) was seeded on polyornithine (0.1 mg/ml in 15mM borate buffer, pH 8.4, Sigma)-laminin (5µg/ml; Sigma) coated glass cover slips at a density of 200.000 cells/cm^2. Coverslips were incubated in a humified 5% CO2/95% air atmosphere to allow cells to attach. After two hours coverslips were transferred to 24-well plates (Falcon) containing 750 µl medium. On the following day, and subsequently every three days, 500 µl of the medium was replaced and neurotrophic factors were added at the same time at the given concentrations.
Immunocytochemistry. To identify DAergic or serotinergic neurons cells were visualized using antibodies aginst tyrosine hydroxylase (TH), or serotonin, respectively. Cells were fixed with 4% paraformaldehyde buffered in phosphate buffered saline (PBS) for 10 min at room temperature, permeabilized with acetone at -20°C for 10 min and washed with (PBS). After blocking with 1% H2O2 in PBS, followed by 1 % horse serum, coverslips were stained with a monoclonal antibody to rat TH (1:200; Boehringer Mannheim; diluted in 1 % horse serum) or with an antibody against serotonin (1:50; DAKO) for 1 h at 37°C. Specific staining was vizualized using the anti-mouse Vectastain ABC kit in combination with DAB (Camon, Germany). For glial fibrillary acidic protein (GFAP) immunocytochemistry, cells were fixed and permeabilized using aceton at -20°C for 20 min, then washed with PBS and incubated with a monoclonal antibody against GFAP (1:100; Sigma) for 1 h at 37°C. As a secondary antibody TRITC anti-mouse-IgG was used. To monitor cell proliferation bromodesoxyuridine (BrdU) was added to the culture, 24 hours prior fixation, at a final concentration of 10 µM. Cells were washed twice with PBS and fixed with 70% ethanol buffered with 50 mM glycine, pH 2.0, for 20 min at -20°C. Incorporated BrdU was identified using anti-BrdU detection Kit I (Boehringer, Mannheim). BrdU/TH double detection was achieved by first applying the protocol for BrdU followed after another five washes with PBS and by the procedure for TH staining using TRITC anti-mouse-IgG as a secondary antibody. Nuclei were stained with propidium iodide (20 s, 0.1µg/ml). Coverslips were mounted using Aquatex (Merck, Darmstadt).
(§2) Evaluation of cell numbers. Survival of DAergic neurons was evaluated by counting all TH-positive neurons in one diagonal strips of the coverslip using 100-fold magnification. This area corresponded to 12% of the total area. Quantification was done in triplicate and in at least two independent experiments. The number of GFAP-positive cells were assessed likewise.

EGFR kinase = EGFR kinase (Homo sapiens, UniProt P00533); conditions: EGFR kinase autophosphorylation; cited from earlier work
HER1-2-kinase = HER1-2-kinase autophosphorylation; cited from earlier work
[2] = tested on: GFAP-positive astroglial cells; experiment: Induction of GFAP-positive astroglial cells in E14 mesencephalic cell cultures (GFAP immunocytochemistry); type: cell-based, rat
Protocol: as §1
Immunocytochemistry. To identify DAergic or serotinergic neurons cells were visualized using antibodies aginst tyrosine hydroxylase (TH), or serotonin, respectively. Cells were fixed with 4% paraformaldehyde buffered in phosphate buffered saline (PBS) for 10 min at room temperature, permeabilized with acetone at -20°C for 10 min and washed with (PBS). After blocking with 1% H2O2 in PBS, followed by 1 % horse serum, coverslips were stained with a monoclonal antibody to rat TH (1:200; Boehringer Mannheim; diluted in 1 % horse serum) or with an antibody against serotonin (1:50; DAKO) for 1 h at 37°C. Specific staining was vizualized using the anti-mouse Vectastain ABC kit in combination with DAB (Camon, Germany). For glial fibrillary acidic protein (GFAP) immunocytochemistry, cells were fixed and permeabilized using aceton at -20°C for 20 min, then washed with PBS and incubated with a monoclonal antibody against GFAP (1:100; Sigma) for 1 h at 37°C. As a secondary antibody TRITC anti-mouse-IgG was used. […]
as §2, with “This area corresponded to 12% of the total area.” left out
In an initial series of experiments the chromaffin granule-derived activity is analyzed by specifically blocking its putative receptor pathway. […] When cultures were treated with TGF-α, a physiological EGFR ligand in the CNS, or EGF (10 ng/ml), only few GFAP-positive astroglial cells could be detected (Fig. 12). […]

p185^c-erbB2 = p185^c-erbB2 (Homo sapiens, UniProt P04626); conditions: cited from earlier work
[3] = 10µM with chromaffin granule protein 1:50, six days

Sequence of p185^c-erbB2 (P04626 23-1255): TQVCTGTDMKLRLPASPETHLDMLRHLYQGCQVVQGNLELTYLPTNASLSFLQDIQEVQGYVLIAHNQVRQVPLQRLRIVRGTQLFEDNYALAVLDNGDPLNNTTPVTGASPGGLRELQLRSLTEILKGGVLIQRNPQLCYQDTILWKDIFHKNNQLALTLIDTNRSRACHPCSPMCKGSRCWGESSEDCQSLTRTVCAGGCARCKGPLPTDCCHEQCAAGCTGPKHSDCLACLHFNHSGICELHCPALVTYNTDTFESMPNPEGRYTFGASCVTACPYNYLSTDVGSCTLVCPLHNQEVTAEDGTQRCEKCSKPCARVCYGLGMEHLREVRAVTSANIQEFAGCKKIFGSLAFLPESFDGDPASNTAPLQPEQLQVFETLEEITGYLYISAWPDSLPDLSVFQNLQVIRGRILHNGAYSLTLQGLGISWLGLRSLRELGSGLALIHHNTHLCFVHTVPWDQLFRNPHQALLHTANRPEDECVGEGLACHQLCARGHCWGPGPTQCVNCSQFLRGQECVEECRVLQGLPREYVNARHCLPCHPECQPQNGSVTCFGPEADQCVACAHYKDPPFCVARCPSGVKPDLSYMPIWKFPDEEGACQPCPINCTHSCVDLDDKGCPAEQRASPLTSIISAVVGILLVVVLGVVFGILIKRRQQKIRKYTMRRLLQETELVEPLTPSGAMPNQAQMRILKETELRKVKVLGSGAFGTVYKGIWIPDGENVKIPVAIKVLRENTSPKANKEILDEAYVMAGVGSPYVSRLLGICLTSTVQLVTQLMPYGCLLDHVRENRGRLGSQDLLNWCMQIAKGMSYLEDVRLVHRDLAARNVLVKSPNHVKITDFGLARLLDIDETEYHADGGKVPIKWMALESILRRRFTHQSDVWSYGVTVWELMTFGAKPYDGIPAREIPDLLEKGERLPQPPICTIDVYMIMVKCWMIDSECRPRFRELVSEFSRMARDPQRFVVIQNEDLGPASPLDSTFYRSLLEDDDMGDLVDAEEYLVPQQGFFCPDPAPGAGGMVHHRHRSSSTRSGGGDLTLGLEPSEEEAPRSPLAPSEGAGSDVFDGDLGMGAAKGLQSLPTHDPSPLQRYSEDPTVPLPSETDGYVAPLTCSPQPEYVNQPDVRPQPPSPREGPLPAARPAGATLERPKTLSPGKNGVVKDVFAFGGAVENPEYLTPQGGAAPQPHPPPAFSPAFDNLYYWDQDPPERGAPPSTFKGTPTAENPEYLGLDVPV
Sequence of EGFR kinase (P00533 25-1210): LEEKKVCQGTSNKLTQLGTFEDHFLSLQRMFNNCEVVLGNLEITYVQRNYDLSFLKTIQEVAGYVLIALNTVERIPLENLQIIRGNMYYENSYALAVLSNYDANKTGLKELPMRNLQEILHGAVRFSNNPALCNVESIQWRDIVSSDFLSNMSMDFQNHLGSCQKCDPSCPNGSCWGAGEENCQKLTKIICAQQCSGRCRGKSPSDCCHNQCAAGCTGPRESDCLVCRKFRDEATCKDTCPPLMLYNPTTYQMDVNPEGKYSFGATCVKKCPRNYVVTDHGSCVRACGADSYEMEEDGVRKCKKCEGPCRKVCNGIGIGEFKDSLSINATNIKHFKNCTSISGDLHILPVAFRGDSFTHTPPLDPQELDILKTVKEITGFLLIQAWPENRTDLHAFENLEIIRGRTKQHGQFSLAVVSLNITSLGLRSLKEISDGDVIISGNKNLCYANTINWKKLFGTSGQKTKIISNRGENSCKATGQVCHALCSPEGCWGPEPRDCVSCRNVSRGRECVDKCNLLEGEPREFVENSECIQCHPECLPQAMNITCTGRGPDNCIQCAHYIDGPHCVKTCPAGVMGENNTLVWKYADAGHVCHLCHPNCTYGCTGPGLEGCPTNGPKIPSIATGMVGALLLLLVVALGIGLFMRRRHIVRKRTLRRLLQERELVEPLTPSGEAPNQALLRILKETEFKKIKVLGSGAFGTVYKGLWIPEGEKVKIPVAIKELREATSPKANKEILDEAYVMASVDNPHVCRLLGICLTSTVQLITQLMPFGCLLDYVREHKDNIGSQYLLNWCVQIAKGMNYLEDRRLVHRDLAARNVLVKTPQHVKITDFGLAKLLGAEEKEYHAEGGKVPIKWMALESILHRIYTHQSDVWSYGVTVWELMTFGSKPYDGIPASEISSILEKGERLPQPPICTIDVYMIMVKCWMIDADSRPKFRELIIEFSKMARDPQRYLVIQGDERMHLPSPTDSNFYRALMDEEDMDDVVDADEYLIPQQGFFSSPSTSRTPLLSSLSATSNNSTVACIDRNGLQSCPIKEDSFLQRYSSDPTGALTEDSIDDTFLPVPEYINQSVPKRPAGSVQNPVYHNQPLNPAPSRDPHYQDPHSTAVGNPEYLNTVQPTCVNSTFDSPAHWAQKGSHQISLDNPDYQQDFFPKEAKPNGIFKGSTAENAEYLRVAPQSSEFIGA

Question: With NC(CCCC(=O)O)C(=O)O (stereo not drawn) [AA, α-aminoadipic acid] as the compound, how does the “effect on survival promoting effect of chromaffin granule protein” value [1] read?
Answer: abolished the survival promoting affect of chromaffin granule protein

Question: What about the “basal survival of TH-immunoreactive neurons” value [1] of the same compound?
Answer: without affecting basal survival

Question: With N#C/C(=C\c1ccc(O)c(O)c1)C(=O)NCCCCc1ccccc1 [Tyrphostin B56] as the compound, how does the IC50 (EGFR kinase) read?
Answer: 5 µM

Question: What about the IC50 (HER1-2-kinase) of the same compound?
Answer: > 500 µM

Question: What about the “effect on chromaffin granule protein-induced appearence of astroglial cells” value ([2]; 10µM Tyrphostin B56 with chromaffin granule protein 1:50) of the same compound?
Answer: successfully inhibited; also recorded: fully blocked the effect of granule protein on mesencephalic glia

Question: For O=C1NC(=O)c2cc(Nc3ccccc3)c(Nc3ccccc3)cc21 [DAPH, 4,5-Dianilinophthalimide], which “p185^c-erbB2 autophosphorylation” value (p185^c-erbB2) is on record?
Answer: inhibits

Question: And the “effect on survival of DAergic neurons induced by chromaffin granule activity” value [1, 3]?
Answer: inhibited

Question: What about the “effect on FGF-2-mediated induction of astroglial cells” value ([2]; 10 µM with FGF-2 at 10 ng/ml, DIV 6) of the same compound?
Answer: could not be affected by this inhibitor

Question: And the “effect on appearence of astroglial cell induced by the chromaffin granule activity” value [2, 3]?
Answer: inhibited

Question: And the “effect on appearance of GFAP-positive astroglial cells in TGF-α or EGF treated cultures” value ([2]; 10 µM, DIV 6)?
Answer: effectively blocked

Question: Which “survival of TH-positive neurons” value ([1]; culture medium containing carbachol (10^-5 M), DIV 8) does the source give for C[N+](C)(C)CCOC(N)=O [carbachol] here?
Answer: uneffective

Question: What does the source list for O=c1[nH]c(=O)n([C@H]2C[C@H](O)[C@@H](CO)O2)cc1F [FDUR, 5-fluorodeoxyuridine]?
Answer: effect on survival promoting effect of chromaffin granule protein [1]: abolished the survival promoting affect of chromaffin granule protein; basal survival of TH-immunoreactive neurons [1]: without affecting basal survival

Question: For Met-enkephalin, which survival promoting activity [1] is on record?
Answer: none of these neuropeptides had any survival promoting activity

Question: For neuropeptide Y, which survival promoting activity [1] is on record?
Answer: none of these neuropeptides had any survival promoting activity

Question: For Leu-enkephalin, which survival promoting activity [1] is on record?
Answer: none of these neuropeptides had any survival promoting activity
